The record followed here is patent US9139587B2, “N1-pyrazolospiroketone acetyl-CoA carboxylase inhibitors” (Pfizer Inc., priority 2009, dated 2015).

The target of experiment [1] is T1, recombinant human ACC1 (rhACC1) (Homo sapiens, UniProt Q13085, DEL44-44).
T1 construct: recombinant baculovirus containing full length human ACC1 cDNA; made in house; host or cells: SF9 insect cells (baculovirus)
Nature of the experiment: recombinant hACC1 Transcreener assay (direct inhibition of ACC1 activity). Type of experiment: biochemical. The settings on record: Transcreener ADP detection FP assay, 50 μM ATP, 30 μM acetyl-CoA, 120 min at 25° C. A digest of the protocol: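 Full-length human ACC1 from baculovirus-infected SF9 cells, dephosphorylated with lambda phosphatase. Reaction in 50 mM HEPES pH 7.2 with 30 μM acetyl-CoA, 50 μM ATP, 10 mM KHCO3, 120 min at 25° C; ADP detected by Transcreener fluorescence polarisation.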

For experiment [2], the target named is T2, recombinant human ACC2 (rhACC2) (Homo sapiens, UniProt O00763, V2141I).
T2 construct: a full length Cytomax clone of ACC2 was purchased from Cambridge Bioscience Limited; made in house; host or cells: CHO cells (tetracycline-induced, pcDNA5 FRT TO-TOPO)
Nature of the experiment: recombinant hACC2 Transcreener assay (direct inhibition of ACC2 activity). Type of experiment: biochemical. As to conditions: Transcreener ADP detection FP assay, 50 μM ATP, 30 μM acetyl-CoA, 50 min at 25° C. A digest of the protocol:
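Full-length human ACC2 was expressed in CHO cells and avidin-purified. ADP formation was measured by Transcreener FP in 50 mM HEPES pH 7.2 with 30 μM acetyl-CoA, 50 μM ATP, 8 mM KHCO3 and 5 mM citrate. Reactions ran 50 min at 25 °C with 1% DMSO, then 1 h with stop/detect reagent.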

Regarding `CC(C)n1ncc2c1C(=O)CC1(CCN(C(=O)c3cnc(-c4ccccn4)[nH]3)CC1)C2` [Example 11A-37], the half-maximal inhibitory concentration (IC50) in experiment [1] was found to be 1030 nM; in experiment [2], 463 nM.
As for `Cc1cc(C(=O)N2CCC3(CC2)CC(=O)c2c(cnn2C(C)(C)C)C3)c(N)c(C)n1` [Example 11A-38], the values for the IC50 in experiment [1] and in experiment [2] were 2170 nM and 1030 nM, respectively.
On to `CC(C)(C)n1ncc2c1C(=O)CC1(CCN(C(=O)c3cnc4[nH]cnc4c3)CC1)C2` [Example 11A-39], for which the half-inhibitory concentration (IC50) was determined as 69 nM in experiment [1] and 81.3 nM in experiment [2].
With `Cc1ccn2cc(C(=O)N3CCC4(CC3)CC(=O)c3c(cnn3C(C)C)C4)nc2c1` [Example 11A-40], the IC50 came out at 1140 nM in experiment [1] and 588 nM in experiment [2].
Take `CC(C)n1ncc2c1C(=O)CC1(CCN(C(=O)c3cccc(-c4ncc[nH]4)c3)CC1)C2` [Example 11A-41]: the IC50 in experiment [1] worked out at 122 nM; in experiment [2], 30.1 nM.
On the same counts, the results for `CC(C)n1ncc2c1C(=O)CC1(CCN(C(=O)c3ccc(N4CCOCC4)cn3)CC1)C2` [Example 11A-42] are 11700 nM and 2850 nM.
For `CC(C)n1ncc2c1C(=O)CC1(CCN(C(=O)c3cc4ccccn4c3)CC1)C2` [Example 11A-43], the results for the IC50 in experiment [1] and in experiment [2] were 143 nM and 45.6 nM, respectively.
On to `Cc1ccc(O)c(C(=O)N2CCC3(CC2)CC(=O)c2c(cnn2C(C)(C)C)C3)n1` [Example 11A-44], for which the IC50 in experiment [1] turned out to be 4170 nM; in experiment [2] it was 4600 nM.
As to `CC(C)(C)n1ncc2c1C(=O)CC1(CCN(C(=O)c3cn4cccc4cn3)CC1)C2` [Example 11A-45], the IC50 in experiment [1] stood at 1500 nM; in experiment [2], 745 nM.
In the case of `CNc1nc(C)ccc1C(=O)N1CCC2(CC1)CC(=O)c1c(cnn1C(C)C)C2` [Example 11A-46], the results for the IC50 in experiment [1] and in experiment [2] were 391 nM and 97.1 nM, respectively.
Take `CC(C)n1ncc2c1C(=O)CC1(CCN(C(=O)c3cc4cccn4cn3)CC1)C2` [Example 11A-47]: the IC50 in experiment [1] was found to be 850 nM; in experiment [2], 373 nM.
`CC(C)n1ncc2c1C(=O)CC1(CCN(C(=O)c3cc4ncccc4[nH]3)CC1)C2` [Example 11A-48]: the results for the IC50 in experiment [1] and in experiment [2] were 78.9 nM and 41.2 nM, respectively.
Regarding `Cc1ccc(O)c(C(=O)N2CCC3(CC2)CC(=O)c2c(cnn2C(C)C)C3)n1` [Example 11A-49], the figures for the IC50 in experiment [1] and in experiment [2] were 13500 nM and 4910 nM, respectively.
`CC(C)(C)n1ncc2c1C(=O)CC1(CCN(C(=O)c3cnc(-c4ccccn4)[nH]3)CC1)C2` [Example 11A-50]: the results for the 50% inhibitory concentration (IC50) in experiment [1] and in experiment [2] were 581 nM and 371 nM, respectively.
On the same counts, the results for `CC(C)(C)n1ncc2c1C(=O)CC1(CCN(C(=O)c3cc4cnccc4[nH]3)CC1)C2` [Example 11A-51] are 110 nM and 108 nM.
The matching figures for `CC(C)n1ncc2c1C(=O)CC1(CCN(C(=O)c3ccn4ccnc4c3)CC1)C2` [Example 11A-52]: 550 nM and 176 nM.
As to `CC(C)(C)n1ncc2c1C(=O)CC1(CCN(C(=O)c3ccc(-c4ncc[nH]4)cc3)CC1)C2` [Example 11A-53], the IC50 in experiment [1] worked out at 68.3 nM; in experiment [2], 22.8 nM.
For `CC(C)n1ncc2c1C(=O)CC1(CCN(C(=O)c3ccc(-n4cncn4)cc3)CC1)C2` [Example 11A-54], the results for the IC50 in experiment [1] and in experiment [2] were 1500 nM and 295 nM, respectively.
Regarding `CC(C)n1ncc2c1C(=O)CC1(CCN(C(=O)c3ccc4c(c3)ncn4C)CC1)C2` [Example 11A-55], the IC50 came out at 213 nM in experiment [1] and 60.4 nM in experiment [2].
`CC(C)n1ncc2c1C(=O)CC1(CCN(C(=O)c3cc4cnccc4[nH]3)CC1)C2` [Example 11A-56]: the IC50 in experiment [1] was determined as 1010 nM; in experiment [2], 359 nM.
Regarding `CC(C)(C)n1ncc2c1C(=O)CC1(CCN(C(=O)c3ccc(N4CCOCC4)cn3)CC1)C2` [Example 11A-57], the figures for the IC50 in experiment [1] and in experiment [2] were 9230 nM and 2330 nM, respectively.
On the same counts, the results for `CC(C)(C)n1ncc2c1C(=O)CC1(CCN(C(=O)c3cnc4cn[nH]c4c3)CC1)C2` [Example 11A-58] are 131 nM and 73.6 nM.
In the case of `CC(C)(C)n1ncc2c1C(=O)CC1(CCN(C(=O)c3ccc(-n4cccn4)nc3)CC1)C2` [Example 11A-59], the values for the IC50 in experiment [1] and in experiment [2] were 86.8 nM and 80.1 nM, respectively.
On to `CC(C)n1ncc2c1C(=O)CC1(CCN(C(=O)c3ccn4cncc4c3)CC1)C2` [Example 11A-60], for which the IC50 was 404 nM in experiment [1] and 171 nM in experiment [2].
On to `CC(C)(C)n1ncc2c1C(=O)CC1(CCN(C(=O)c3ccc4cnccc4n3)CC1)C2` [Example 11A-61], for which the IC50 in experiment [1] worked out at 2570 nM; in experiment [2] it was 1350 nM.
In the case of `CC(C)n1ncc2c1C(=O)CC1(CCN(C(=O)c3cc(-c4cccnc4)[nH]n3)CC1)C2` [Example 11A-62], the results for the IC50 in experiment [1] and in experiment [2] were 338 nM and 112 nM, respectively.
Regarding `CC(C)n1ncc2c1C(=O)CC1(CCN(C(=O)c3ccc(-n4ccnc4)cn3)CC1)C2` [Example 11A-63], the IC50 in experiment [1] came out at 8720 nM; in experiment [2], 2550 nM.
Turning to `CC(C)(C)n1ncc2c1C(=O)CC1(CCN(C(=O)c3cccc(-c4ncc[nH]4)c3)CC1)C2` [Example 11A-64], the values for the IC50 in experiment [1] and in experiment [2] were 105 nM and 24.4 nM, respectively.
As to `CC(C)n1ncc2c1C(=O)CC1(CCN(C(=O)c3ccc4[nH]cnc4n3)CC1)C2` [Example 11A-65], the IC50 is 1080 nM in experiment [1] and 388 nM in experiment [2].
The matching figures for `CC(C)n1ncc2c1C(=O)CC1(CCN(C(=O)c3c[nH]c4c(cnn4C)c3=O)CC1)C2` [Example 11A-66]: 4080 nM and 1390 nM.
Take `CC(C)(C)n1ncc2c1C(=O)CC1(CCN(C(=O)c3ccn4ccnc4c3)CC1)C2` [Example 11A-67]: the IC50 in experiment [1] came out at 203 nM; in experiment [2] it was 139 nM.
With `CC(C)(C)n1ncc2c1C(=O)CC1(CCN(C(=O)c3ccc4[nH]cnc4n3)CC1)C2` [Example 11A-68], the values for the IC50 in experiment [1] and in experiment [2] were 825 nM and 285 nM, respectively.
As for `CC(C)(C)n1ncc2c1C(=O)CC1(CCN(C(=O)c3cc4cccn4cn3)CC1)C2` [Example 11A-69], the IC50 turned out to be 580 nM in experiment [1] and 288 nM in experiment [2].
`Cn1ncc2c(=O)c(C(=O)N3CCC4(CC3)CC(=O)c3c(cnn3C(C)(C)C)C4)c[nH]c21` [Example 11A-70]: the half-inhibitory concentration (IC50) in experiment [1] is 1860 nM; in experiment [2], 1040 nM.
The matching figures for `CC(C)(C)n1ncc2c1C(=O)CC1(CCN(C(=O)c3ccc(-n4cncn4)cc3)CC1)C2` [Example 11A-72]: 867 nM and 153 nM.
As to `CC(C)(C)n1ncc2c1C(=O)CC1(CCN(C(=O)c3cc4ccncc4[nH]3)CC1)C2` [Example 11A-73], the 50% inhibitory concentration (IC50) in experiment [1] and in experiment [2] was 37.4 nM throughout.
Consider `CC(C)(C)n1ncc2c1C(=O)CC1(CCN(C(=O)c3ccc4cn[nH]c4c3)CC1)C2` [Example 11A-74], for which the IC50 in experiment [1] was 23.7 nM; in experiment [2], 16.8 nM.
As to `CC(C)(C)n1ncc2c1C(=O)CC1(CCN(C(=O)c3cc4cccnc4[nH]3)CC1)C2` [Example 12A-1, 1-tert-butyl-1′-(1H-pyrrolo[2,3-b]pyridine-2-carbonyl)-4,6-dihydrospiro[indazole-5,4′-piperidin]-7(1H)-one], the concentration for half-maximal inhibition (IC50) amounted to 39.5 nM in experiment [1] and 67.3 nM in experiment [2].
For `CC(C)(C)n1nc(Br)c2c1C(=O)CC1(CCN(C(=O)c3cc(Br)c4[nH]c(=O)[nH]c4c3)CC1)C2` [Example 13A-1, 3-bromo-1′-(7-bromo-2-oxo-2,3-dihydro-1H-benzo[d]imidazole-5-carbonyl)-1-tert-butyl-4,6-dihydrospiro[indazole-5,4′-piperidin]-7(1H)-one], the IC50 in experiment [1] stood at 264 nM; in experiment [2] it was 316 nM.

In general, IC50 refers to the concentration needed to halve the response being measured.
